The source of these data is patent US20240000949A1, “Nucleic Acid-Derivatized Therapeutics” (The University of Chicago, priority 2020, published 2024).

Data set [1] relates to Lactate dehydrogenase (LDH) in BMDMs. The data set is described as follows: LDH activity and lactate in BMDMs under hypoxia. Format: cell-based, mouse. The following applies: hypoxic (1% 02), 24h, vs vehicle. The procedure:
FIG. 82. […] Bone marrow-derived macrophages (BMDMs) were cultured under normoxic (n) or hypoxic (h, 1% 02) conditions for 24h in the presence of vehicle (veh), GNE, or GNE-DNA.
FIG. 83. […] Bone marrow-derived macrophages (BMDMs) were cultured under normoxic (n) or hypoxic (h, 1% 02) conditions for 24h in the presence of vehicle (veh), GNE, or GNE-DNA. Intracellular lactate levels in BMDMs are decreased by GNE or GNE-DNA under hypoxic conditions to levels compared to vehicle.
BMDMs were differentiated from bone marrow stem cells with L-cell conditioned media for six days as previously described (Kratz et al.).

A further data set has as its system E0771 tumors. Kind of data set: E0771 tumor growth after i.v. delivery (incl. antibody depletion, anti-PD-L1 and CTX combinations). Format: in vivo, mouse. The following applies: E64-DNA 25 μg i.v., CTX 50 mg/kg.
In data set [2] the test system is TAMs isolated from E0771 tumors. Kind of data set: DQ-OVA degradation by TAMs treated ex vivo. Format: cell-based, mouse. To be noted: 100 nM, 2h ex vivo. The procedure:
FIGS. 46A-46B. A lysosome-targeted DNA nanodevice (E64-DNA) promotes antigen cross-presentation by TAMs. FIG. 43A, Representative images (left) and Pearson correlation (right) of co-localization of TMR-Dextran labeled lysosomes (green) with E64-DNA (red). Pearson correlation with and without a 20-pixel shift (˜lysosome diameter) of the green signal. n=15 cells/group. scale bar=[…]. FIG. 43B, DQ-OVA degradation by TAMs treated with E64-DNA, DNA, or E64 (100 nM) for 2h. n=3/group. Statistical significance was calculated via two-tailed Student's t-test (p<0.05 values are provided); error bars indicate the mean of independent experiments±s.e.m. ns; not significant. TAMs were isolated from E0771 tumors. All measurements (n) are biological replicates.
Analysis of lysosomal degradation by DQ-OVA. Lysosomal degradative capacity of macrophages was assessed by a DQ-OVA degradation assay (D-12053, Invitrogen®) according to the manufacturer's instruction. Briefly, 0.2 million cells were incubated with 10 μg/mL of DQ-OVA at room temperature for 15 min, washed, and incubated at 37° C. for another 15 min. DQ-OVA fluorescence was quantified by flow cytometry.

Another data set has as its system TAMs / OT-1 CD8+ T cells. The data set is described as follows: MHCI-restricted antigen cross-presentation by TAMs (OVA-OT-1 CD8+ T cell system). Format: cell-based, mouse. The following applies: 100 nM, alone.
The test system of another data set is tumor growth. To be noted: 1 mg, daily; cited from earlier work.
The test system of a further data set is BMDMs. The data set is described as follows: Uptake of fluorescently labelled nucleic acid scaffolds by BMDMs (flow cytometry). The following applies: pulsed with 50 nM scaffold 30 min, chased 15 min. Format: cell-based, mouse. The source says:
FIGS. 1A-1B. Uptake of various oligonucleotides by bone marrow-derived macrophages (BMDMs). FIG. 1A, Schematic of various fluorescently labelled nucleic acid structures used for uptake studies in BMDMs. Each nucleic acid scaffold is either a single stranded or double stranded 38 mer DNA (D) or RNA (R) sequence, or a DNA:RNA hybrid or complex. Each scaffold is labelled with an Alexa Fluor® 647N fluorophore on the 5′ end of one of the strands. From left to right, the constructions tested were dsDNA (SEQ ID NO: 40 and SEQ ID NO: 41 or SEQ ID NO: 42), ssDNA (SEQ ID NO: 41), dsRNA (SEQ ID NO: 43 and SEQ ID NO: 44), ssRNA (SEQ ID NO: 43), and ssDNA:ssRNA (SEQ ID NO: 45 and SEQ ID NO: 46). FIG. 1B, BMDMs were pulsed with 100 nM of each nucleic acid scaffold for 30 min. The cells were then washed and chased for 15 min after which were subjected to flow cytometry based quantification. Mean fluorescence intensity (A/IFI) of nucleic acid scaffold uptake by BMDMs is shown.
Various fluorescently labelled scaffolds were tested in a variety of nucleic acid configurations (Table 1).
BMDMs were pulsed with 50 nM of each nucleic acid scaffold for 30 min. The cells were then washed and chased for 15 min after which they were subjected to flow cytometry quantification. A nucleic acid scaffold was then selected for subsequent experiments. […]

A further data set concerns M2 BMDMs. Kind of data set: Uptake by M2 BMDMs in vitro (wt and scavenger receptor knockouts; nucleic acid variants). Format: cell-based, mouse. The following applies: 30 min. The procedure:
FIG. 48. A lysosome-targeted DNA nanodevice (E64-DNA) promotes antigen cross-presentation by TAMs. E64-DNA uptake by M2 BMDMs from wt, Scarb1−/−, Msr1−/−, or Cd36−/− mice. Uptake was quantified by flow cytometry; n=3/group. Statistical significance was calculated via two-tailed Student's t-test (p<0.05 values are provided); error bars indicate the mean of independent experiments±s.e.m. ns; not significant. TAMs were isolated from E0771 tumors. All measurements (n) are biological replicates.
FIGS. 49A-49B. DNA nanodevice uptake and stability. FIG. 49A, Schematic of various fluorescently labeled nucleic acid structures used for uptake studies in BMDMs. Each nucleic acid scaffold is either a single stranded or double stranded 38 mer DNA or RNA sequence. Each scaffold is labelled with an Alexa Fluor® 647 fluorophore on the 5′ end of one of the strands. FIG. 49B, Uptake of various types of nucleic acids by M2 BMDMs. n=3/group. Statistical significance was calculated via two-tailed Student's t-test (p<0.05 values are provided); error bars indicate the mean of independent experiments±s.e.m. ns; not significant. […]
E64-DNA uptake by M2 BMDMs in vitro—E64-DNA (100 nM) or other types of nucleic acids (D1-D2, D2, R1-R2, R2) was incubated with 0.2 million M2-activated BMDMs from wt, Scarb1−/−, Msr1−/−, or Cd36−/− mice for 30 min, washed with PBS, and uptake was assessed by flow cytometry.

Data set [3] relates to tumor associated macrophages. Kind of data set: In vivo macrophage labeling by i.v. fluorophore labeled dsDNA, TNBC model. The following applies: 25 μg dsDNA i.v., TNBC mouse model. The procedure:
(§1) BMDMs were pulsed with 50 nM of each nucleic acid scaffold for 30 min. The cells were then washed and chased for 15 min after which they were subjected to flow cytometry quantification. A nucleic acid scaffold was then selected for subsequent experiments. To test the efficiency of macrophage labeling in vivo, 25 μg of fluorophore labeled dsDNA was injected intravenously into a mouse model of triple-negative breast cancer (TNBC).

The test system of another data set is alveolar macrophages. Kind of data set: In vivo labeling by intratracheal dsDNA. Further details: species or system mouse. To be noted: 100 μg dsDNA intratracheally. The procedure:
(§2) FIGS. 2A-2B. dsDNA preferentially targets macrophages in other tissues. FIG. 2A, Fluorescently labeled dsDNA (100 μg) was injected intratracheally into mice and cells were harvested 2 hr post injection with a bronchoalveolar lavage. Uptake by alveolar macrophages (AM, CD45^+CD11b^−CD11c^+) and alveolar neutrophils (AN, CD45^+CD11b^+Ly6G^+) was quantified by flow cytometry. FIG. 2B, Fluorescently labeled dsDNA (100 μg) was injected intraperitoneally into mice and visceral adipose tissue was harvested 4 hr post injection. Adipose tissue was digested to obtain the stromal vascular fraction. dsDNA uptake by cells in the stromal vascular fraction was quantified by flow cytometry. ATM=adipose tissue macrophage (CD45^+CD11b^+F4/80^+).
as §1

In data set [4] the test system is adipose tissue macrophages. The data set is described as follows: In vivo labeling by intraperitoneal dsDNA. Set-up: species or system mouse. The following applies: 100 μg dsDNA intraperitoneally. The procedure:
as §2, §1

{Alexa647} = Alexa Fluor 647 dye

Description for TAMs / OT-1 CD8+ T cells: OT-1 CD8^+ T-cell activation (FIG. 53B) and proliferation (FIG. 53C) after 72h of co-culture with TAMs. n=3/group. Vehicle (Veh)=phosphate-buffered saline. Statistical significance was calculated via two-tailed Student's t-test (p<0.05 values are provided); error bars indicate the mean of independent experiments±s.e.m. ns; not significant. TAMs were isolated from E0771 tumors. All measurements (n) are biological replicates.
CD3/CD28 antibodies were included as a positive control for T cell activation. n=3/group. Statistical significance was calculated via two-tailed Student's t-test (p<0.05 values are provided); error bars indicate the mean of independent experiments±s.e.m. All measurements (n) are biological replicates. […]
T cell activation—CD8^+ or CD4^+ T cells were treated with BD GolgiPlug for the final 6 h of coculture with macrophages to allow intracellular IFNγ accumulation. […] The percent of IFNγ^+/CD44^+CD8^+ T cells was quantified by flow cytometry. In some cases, CD8^+ T cell IFNγ production in the culture medium at 72h was quantified using a mouse IFN-γ ELISA kit (Invitrogen).
T cell proliferation—Isolated CD4^+ or CD8^+ T cells were labeled with 5 μM 5,6-carboxyfluorescein diacetate succinimidyl ester (CF SE, Invitrogen) according to the manufacturer's instructions. The number of proliferating cells (CF SE-diluted) was quantified using CountBright™ beads (Invitrogen). […]

In the case of `O=C1N[C@](c2ccc(N3CCOCC3)cc2)(c2ccsc2)CC(O)=C1Sc1ccccc1Cl` [GNE, (R)-GNE-140], in [1], the “Lactate dehydrogenase (LDH) activity in BMDMs” value was “decreased” and the “intracellular lactate levels in BMDMs” value is recorded as “decreased”.

On to `O=P1(N(CCCl)CCCl)NCCCO1` (stereo not drawn) [CTX, cyclophosphamide], for which the “sustained tumor regression in the E0771 model” value in the data set with E0771 tumors is “could not be replicated”.

In the case of `CC(C)C[C@H](NC(=O)[C@@H]1O[C@H]1C(=O)O)C(=O)NCCCCNC(=N)N` [E64, reference compound], in data set [2], the “DQ-OVA degradation by TAMs” value is “could not be reproduced”. The “antigen cross-presentation by TAMs” value in the data set with TAMs / OT-1 CD8+ T cells is listed as “did not affect cross-presentation”. Further, the “tumor growth, free E64 high doses” value with tumor growth was “limited impact on tumor growth”.

Take “ssDNA: single stranded 38 mer DNA, SEQ ID NO: 41, Alexa 647 labelled (TATATATAGGATCTTGCTGTCTGGTGTGCAGTGTTGAT; DNA, 5' {Alexa647}, backbone and methylation of C not given here)”: in the data set with BMDMs, the “uptake of nucleic acid scaffold by BMDMs” value is “maximal uptake”. Besides, the “internalization of 38 nucleotide Alexa 647 scaffolds by M2 BMDMs” value in the data set with M2 BMDMs was “required a ssDNA or dsDNA scaffold”.

B1: dsDNA: 38-mer double stranded DNA, SEQ ID NO: 40 and SEQ ID NO: 41, Alexa 647 labelled; targeting module without drug (nucleic acid)
chain 1: ATCAACACTGCACACCAGACAGCAAGATCCTATATATA
chain 2: TATATATAGGATCTTGCTGTCTGGTGTGCAGTGTTGAT
modifications: listed as DNA, chemistry not fully specified
notes: targeting module without drug
Consider B1, for which the “uptake of nucleic acid scaffold by BMDMs” value in the data set with BMDMs is “maximal uptake”. The “labeling of tumor associated macrophages preferentially over any other cell type in the tumor microenvironment” value in data set [3] was greater than 90%. The “labeling of alveolar macrophages preferentially over other cell types” value in the data set with alveolar macrophages is listed as greater than 95%. Also, the “labeling of adipose tissue macrophages preferentially over other cell types” value in data set [4] stood at 70%. The “DQ-OVA degradation by TAMs” value in data set [2] is given as “could not be reproduced”. Further, the “internalization of 38 nucleotide Alexa 647 scaffolds by M2 BMDMs” value in the data set with M2 BMDMs was “required a ssDNA or dsDNA scaffold”. The “antigen cross-presentation by TAMs” value in the data set with TAMs / OT-1 CD8+ T cells is “did not affect cross-presentation”.
